# Experimental data as given in US10392368B2, “Pyrazolo and triazolo bicyclic compounds as JAK kinase inhibitors” (THERAVANCE BIOPHARMA R&D IP, LLC, priority 2017, dated 2019).
# Read-outs that look alike come from different tables or passages of the source.
# What was measured:
# [1] = target: T1, JAK1 (Homo sapiens, UniProt P23458); assay: Biochemical JAK1 kinase assay (LanthaScreen); details: for Ki: read-out: JAK 1 (pKi) (converted)
# T1 construct: GST; purchased Life Technologies
# In short: (§1)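 Values are pKi, calculated by Cheng-Prusoff from IC50 obtained by robust 4-parameter fitting of percent inhibition. The kinase reaction used GFP-STAT1 peptide in HEPES pH 7.5 buffer with MgCl2, EGTA and Brij-35, ATP-initiated after compound pre-incubation, 1 h at ambient temperature.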
# [2] = target: T2, JAK2 (Homo sapiens, UniProt O60674); assay: Biochemical JAK2 kinase assay (LanthaScreen); details: for Ki: read-out: JAK 2 (pKi) (converted)
# T2 construct: GST; purchased Life Technologies
# In short: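 GST-tagged recombinant JAK2 pre-incubated 1 h at ambient temperature with compound and GFP-STAT1 peptide in HEPES pH 7.5/MgCl2 buffer, then ATP added for a 1 h reaction with 1% DMSO. TR-FRET read after EDTA and Tb-anti-pSTAT1 (pTyr701) addition; IC50 from 4-parameter fit, converted to pKi by Cheng-Prusoff.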
# [3] = target: T3, Tyk2 (Homo sapiens, UniProt P29597); assay: Biochemical Tyk2 kinase assay (LanthaScreen); details: for Ki: read-out: Tyk 2 (pKi) (converted)
# T3 construct: GST; purchased Life Technologies
# In short: as §1
# [4] = tested on: IL-2 stimulated pSTAT5 in Tall-1 T cells; assay: Cellular JAK3 potency assay: inhibition of IL-2 stimulated pSTAT5 in Tall-1 T cells; type: cell-based, human; details: for IC50: Homo sapiens, read-out: Tall-1 (pIC50) (converted)
# In short: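 In human Tall-1 T cells, IL-2 (300 ng/ml final, 30 min) drives STAT5 phosphorylation after a 1 h compound pretreatment. Lysates are assayed for pSTAT5 by AlphaLisa, and IC50 derived from signal versus concentration is expressed as pIC50.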
# [5] = target: T4, JAK3 (Homo sapiens, UniProt P52333); assay: Biochemical JAK3 kinase assay (LanthaScreen); parameters: GST; purchased Life Technologies; details: for Ki: read-out: JAK 3 (pKi) (converted)
# T4 sequence (P52333 1-1124): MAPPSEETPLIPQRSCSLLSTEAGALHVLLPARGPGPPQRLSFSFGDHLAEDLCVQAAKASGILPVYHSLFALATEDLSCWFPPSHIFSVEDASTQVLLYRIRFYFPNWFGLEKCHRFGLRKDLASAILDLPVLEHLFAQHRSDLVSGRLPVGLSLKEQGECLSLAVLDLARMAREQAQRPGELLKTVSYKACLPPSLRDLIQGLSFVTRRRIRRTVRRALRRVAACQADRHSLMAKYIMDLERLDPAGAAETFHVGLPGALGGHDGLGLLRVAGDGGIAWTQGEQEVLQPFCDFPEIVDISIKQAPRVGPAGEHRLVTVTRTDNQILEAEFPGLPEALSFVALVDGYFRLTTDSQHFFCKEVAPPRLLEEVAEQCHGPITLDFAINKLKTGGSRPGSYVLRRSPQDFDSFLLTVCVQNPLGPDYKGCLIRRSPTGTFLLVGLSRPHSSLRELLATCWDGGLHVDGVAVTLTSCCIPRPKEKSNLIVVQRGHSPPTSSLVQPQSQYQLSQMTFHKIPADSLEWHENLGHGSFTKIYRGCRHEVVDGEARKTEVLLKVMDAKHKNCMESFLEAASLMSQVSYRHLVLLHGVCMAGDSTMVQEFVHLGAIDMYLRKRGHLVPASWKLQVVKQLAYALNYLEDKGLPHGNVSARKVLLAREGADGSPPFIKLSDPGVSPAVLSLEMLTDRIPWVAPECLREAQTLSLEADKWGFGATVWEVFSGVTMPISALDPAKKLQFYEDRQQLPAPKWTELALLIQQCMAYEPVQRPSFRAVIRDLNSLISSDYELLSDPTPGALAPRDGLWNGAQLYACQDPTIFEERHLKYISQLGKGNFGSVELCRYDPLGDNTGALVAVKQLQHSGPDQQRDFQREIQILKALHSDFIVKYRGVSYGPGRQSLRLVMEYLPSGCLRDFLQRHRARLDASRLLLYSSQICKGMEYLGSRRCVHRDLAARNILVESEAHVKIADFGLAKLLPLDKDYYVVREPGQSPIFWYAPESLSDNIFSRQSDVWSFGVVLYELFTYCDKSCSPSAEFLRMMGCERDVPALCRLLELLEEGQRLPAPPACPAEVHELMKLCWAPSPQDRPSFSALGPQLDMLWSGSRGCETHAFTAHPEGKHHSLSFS
# In short: as §1
# [6] = TALL-1, IL-2 stimulated pSTAT5, Tall-1 T cells
# [7] = selectivity JAK3 over JAK1, difference of pKi
# [8] = IL-2 stimulated pSTAT5 in Tall-1 T cells
# [9] = selectivity: difference of pKi JAK3 and pKi JAK1
# [10] = TALL-1, IL-2 stimulated pSTAT5 in Tall-1 T cells
# [11] = IL-2 stimulated pSTAT5, Tall-1 T cells
# T2 sequence (O60674 whole entry): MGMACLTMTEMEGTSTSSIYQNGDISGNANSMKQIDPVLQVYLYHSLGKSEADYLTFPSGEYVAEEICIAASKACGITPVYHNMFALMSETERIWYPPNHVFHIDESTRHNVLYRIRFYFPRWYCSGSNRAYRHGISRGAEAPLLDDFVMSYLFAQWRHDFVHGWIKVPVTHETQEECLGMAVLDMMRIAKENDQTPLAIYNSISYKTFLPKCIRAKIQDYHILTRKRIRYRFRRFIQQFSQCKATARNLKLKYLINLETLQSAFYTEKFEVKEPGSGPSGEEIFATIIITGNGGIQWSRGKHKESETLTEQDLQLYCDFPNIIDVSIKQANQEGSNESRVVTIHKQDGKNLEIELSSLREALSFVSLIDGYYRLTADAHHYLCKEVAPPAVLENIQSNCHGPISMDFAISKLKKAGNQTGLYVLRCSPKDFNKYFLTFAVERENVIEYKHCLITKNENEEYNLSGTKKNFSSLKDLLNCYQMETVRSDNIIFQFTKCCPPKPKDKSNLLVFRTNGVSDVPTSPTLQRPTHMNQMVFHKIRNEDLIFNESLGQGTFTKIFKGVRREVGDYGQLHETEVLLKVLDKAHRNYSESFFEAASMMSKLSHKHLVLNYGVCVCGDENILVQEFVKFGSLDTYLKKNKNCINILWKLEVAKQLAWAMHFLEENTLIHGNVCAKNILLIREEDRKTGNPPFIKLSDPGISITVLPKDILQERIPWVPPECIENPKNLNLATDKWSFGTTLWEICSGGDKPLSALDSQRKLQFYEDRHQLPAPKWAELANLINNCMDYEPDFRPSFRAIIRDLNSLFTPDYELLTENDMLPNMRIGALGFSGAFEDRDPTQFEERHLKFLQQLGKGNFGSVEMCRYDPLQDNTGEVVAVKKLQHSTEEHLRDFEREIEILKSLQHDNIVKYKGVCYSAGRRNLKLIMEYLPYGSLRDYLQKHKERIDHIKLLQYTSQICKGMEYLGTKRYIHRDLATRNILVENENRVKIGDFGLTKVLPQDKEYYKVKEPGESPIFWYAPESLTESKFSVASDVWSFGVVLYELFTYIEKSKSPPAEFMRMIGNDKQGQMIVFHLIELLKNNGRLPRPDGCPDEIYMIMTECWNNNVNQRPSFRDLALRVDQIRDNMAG
# T1 sequence (P23458 whole entry): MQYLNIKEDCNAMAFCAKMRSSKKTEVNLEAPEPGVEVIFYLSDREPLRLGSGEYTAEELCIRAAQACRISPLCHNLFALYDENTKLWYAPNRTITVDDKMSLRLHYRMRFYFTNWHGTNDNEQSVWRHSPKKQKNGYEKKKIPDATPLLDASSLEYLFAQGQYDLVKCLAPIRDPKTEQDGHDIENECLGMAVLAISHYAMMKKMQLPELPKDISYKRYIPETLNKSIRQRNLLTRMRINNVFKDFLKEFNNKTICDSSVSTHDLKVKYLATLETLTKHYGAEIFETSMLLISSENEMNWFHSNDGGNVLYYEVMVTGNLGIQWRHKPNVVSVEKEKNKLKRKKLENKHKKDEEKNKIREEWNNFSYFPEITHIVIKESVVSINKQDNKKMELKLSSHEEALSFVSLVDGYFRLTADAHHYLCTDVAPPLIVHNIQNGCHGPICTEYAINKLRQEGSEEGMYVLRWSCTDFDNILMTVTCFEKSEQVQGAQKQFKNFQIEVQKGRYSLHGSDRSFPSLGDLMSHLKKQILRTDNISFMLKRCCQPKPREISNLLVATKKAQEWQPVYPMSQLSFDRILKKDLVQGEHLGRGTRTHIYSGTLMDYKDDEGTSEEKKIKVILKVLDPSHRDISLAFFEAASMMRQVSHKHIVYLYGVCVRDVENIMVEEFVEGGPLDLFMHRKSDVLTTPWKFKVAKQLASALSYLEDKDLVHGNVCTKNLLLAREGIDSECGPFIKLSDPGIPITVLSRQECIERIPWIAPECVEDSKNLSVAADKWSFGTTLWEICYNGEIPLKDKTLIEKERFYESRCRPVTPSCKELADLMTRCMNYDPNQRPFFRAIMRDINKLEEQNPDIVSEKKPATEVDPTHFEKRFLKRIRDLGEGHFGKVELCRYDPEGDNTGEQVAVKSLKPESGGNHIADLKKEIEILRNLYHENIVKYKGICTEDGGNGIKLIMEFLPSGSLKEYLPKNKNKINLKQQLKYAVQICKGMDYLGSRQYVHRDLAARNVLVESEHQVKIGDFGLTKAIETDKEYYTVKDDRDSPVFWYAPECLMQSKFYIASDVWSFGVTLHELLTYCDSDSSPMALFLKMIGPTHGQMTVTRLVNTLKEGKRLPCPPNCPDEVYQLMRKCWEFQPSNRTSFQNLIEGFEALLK
# T3 sequence (P29597 whole entry): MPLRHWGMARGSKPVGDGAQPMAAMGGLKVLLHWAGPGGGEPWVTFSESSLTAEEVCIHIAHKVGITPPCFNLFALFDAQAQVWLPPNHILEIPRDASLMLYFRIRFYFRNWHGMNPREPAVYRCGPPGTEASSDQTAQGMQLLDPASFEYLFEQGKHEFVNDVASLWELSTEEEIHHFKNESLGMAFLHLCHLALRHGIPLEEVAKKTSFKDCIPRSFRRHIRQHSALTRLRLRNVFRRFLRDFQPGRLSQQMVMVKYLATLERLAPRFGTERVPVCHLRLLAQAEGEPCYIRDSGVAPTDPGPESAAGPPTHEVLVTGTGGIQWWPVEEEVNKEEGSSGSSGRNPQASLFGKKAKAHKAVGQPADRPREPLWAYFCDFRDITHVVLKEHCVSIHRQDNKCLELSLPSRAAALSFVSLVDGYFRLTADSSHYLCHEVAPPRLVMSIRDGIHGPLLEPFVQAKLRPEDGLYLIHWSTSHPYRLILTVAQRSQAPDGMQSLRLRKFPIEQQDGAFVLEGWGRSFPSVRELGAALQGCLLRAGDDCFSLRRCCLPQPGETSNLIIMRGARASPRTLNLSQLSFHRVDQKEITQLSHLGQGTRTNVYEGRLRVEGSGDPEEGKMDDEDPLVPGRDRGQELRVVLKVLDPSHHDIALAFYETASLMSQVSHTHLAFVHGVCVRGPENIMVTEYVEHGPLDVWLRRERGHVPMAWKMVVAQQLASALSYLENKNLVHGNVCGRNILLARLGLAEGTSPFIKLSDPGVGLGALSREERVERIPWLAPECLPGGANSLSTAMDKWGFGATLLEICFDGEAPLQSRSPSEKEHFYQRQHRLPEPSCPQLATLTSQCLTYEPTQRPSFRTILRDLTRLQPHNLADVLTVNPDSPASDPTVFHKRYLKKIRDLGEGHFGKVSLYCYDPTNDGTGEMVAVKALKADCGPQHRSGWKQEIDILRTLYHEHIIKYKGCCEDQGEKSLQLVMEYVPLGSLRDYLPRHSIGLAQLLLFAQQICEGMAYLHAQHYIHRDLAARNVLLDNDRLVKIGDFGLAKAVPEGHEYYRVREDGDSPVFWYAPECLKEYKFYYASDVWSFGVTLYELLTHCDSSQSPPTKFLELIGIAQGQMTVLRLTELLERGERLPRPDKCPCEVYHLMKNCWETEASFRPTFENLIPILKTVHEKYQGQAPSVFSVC
Structure (SMILES),Ki [1],Ki [2],Ki [3],"IC50 [4, 6]",Ki [5],"JAK3 (pKi)-JAK1 (pKi) [5, 7]",JAK 1 (pKi) [1],JAK 2 (pKi) [2],Tyk 2 (pKi) [3],"Tall-1 (pIC50) [4, 8]",JAK 3 (pKi) [5],"JAK3 (pKi)-JAK1 (pKi) [5, 9]","IC50 [4, 10]","Tall-1 (pIC50) [4, 11]"
C=CC(=O)N1CC(C#N)(C(=O)Nc2cc(-c3ccc(O)cc3)cc3[nH]ncc23)C1 [Compound 12-47],> 100 nM,> 100 nM,> 100 nM,31.6 to 200 nM,0.1 to 1 nM,A (a value of 3 or above),–,–,–,–,–,–,–,–
C=CC(=O)N1CC(C)(CNc2cc(-c3ccc(O)cc3)cc3[nH]ncc23)C1 [Compound 4-2],–,–,–,–,–,–,D (a pKi value between 7 and 8 (Ki between 100 nM and 10 nM)),D (a pKi value between 7 and 8 (Ki between 100 nM and 10 nM)),E (a pKi value of 7 or below (Ki of 100 nM or above)),B (a pIC50 value between 6.7 (included) and 7.5 (IC50 between 200 nM and 32 nM)),B (a pKi value between 9 and 10 (Ki between 1 nM and 0.1 nM)),B (a value of 2.3 to 3),–,–
C=CC(=O)N1CC(F)(COc2nc(-c3ccc(O)c(F)c3)nc3[nH]ncc23)C1 [Compound 3-93],> 100 nM,> 100 nM,> 100 nM,–,< 0.1 nM,–,–,–,–,–,–,A (a value of 3 or above),< 31.6 nM,–
C=CC(=O)N1CC(C#N)(COc2nc(-c3ccc(O)cc3)cc3[nH]ncc23)C1 [Compound 3-103],> 100 nM,10 to 100 nM,> 100 nM,–,< 0.1 nM,–,–,–,–,–,–,A (a value of 3 or above),< 31.6 nM,–
C=CC(=O)N1CC2(CC(Oc3nc(-c4ccc(O)c(F)c4)nc4[nH]ncc34)C2)C1 [Compound 15-10],–,–,–,–,–,A (a value of 3 or above),E (a pKi value of 7 or below (Ki of 100 nM or above)),E (a pKi value of 7 or below (Ki of 100 nM or above)),E (a pKi value of 7 or below (Ki of 100 nM or above)),–,A (a pKi value≥10 (Ki≤0.1 nM)),–,–,A (a pIC50 value≥7.5 (IC50≤32 nM))
CN(C)C/C=C/C(=O)N1CC(F)(COc2nc(-c3ccc(O)cc3)nc3[nH]ncc23)C1 [Compound 3-88],> 100 nM,> 100 nM,> 100 nM,–,0.1 to 1 nM,–,–,–,–,–,–,A (a value of 3 or above),31.6 to 200 nM,–
C=CC(=O)N1CC[C@H](Oc2cc(-c3cc(F)c(O)cc3F)cc3[nH]ncc23)C1 [Compound 1-19],–,–,–,–,–,–,E (a pKi value of 7 or below (Ki of 100 nM or above)),D (a pKi value between 7 and 8 (Ki between 100 nM and 10 nM)),E (a pKi value of 7 or below (Ki of 100 nM or above)),B (a pIC50 value between 6.7 (included) and 7.5 (IC50 between 200 nM and 32 nM)),B (a pKi value between 9 and 10 (Ki between 1 nM and 0.1 nM)),A (a value of 3 or above),–,–
COC1(C)CN(C/C=C/C(=O)N2CC(COc3cc(-c4ccc(O)cc4)cc4[nH]ncc34)C2)C1 [Compound 3-133],> 100 nM,10 to 100 nM,> 100 nM,–,< 0.1 nM,–,–,–,–,–,–,A (a value of 3 or above),200 to 1000 nM,–
C=CC(=O)N1CC2(CCC2Oc2cc(-c3ccc(O)cc3)cc3[nH]ncc23)C1 (stereo not drawn) [Compound 12-54],> 100 nM,10 to 100 nM,> 100 nM,< 31.6 nM,0.1 to 1 nM,B (a value of 2.3 to 3),–,–,–,–,–,–,–,–
C=CC(=O)N1CC[C@H](Oc2cc(-c3c(F)cc(O)cc3F)cc3[nH]ncc23)C1 [Compound 1-18],10 to 100 nM,10 to 100 nM,> 100 nM,–,0.1 to 1 nM,–,–,–,–,–,–,B (a value of 2.3 to 3),< 31.6 nM,–
CN(C)C/C=C/C(=O)N1CC2(CCC2Oc2cc(-c3ccc(O)cc3)cc3[nH]ncc23)C1 (stereo not drawn) [Compound 12-53],> 100 nM,1 to 10 nM,> 100 nM,< 31.6 nM,0.1 to 1 nM,B (a value of 2.3 to 3),–,–,–,–,–,–,–,–
C=CC(=O)N1CCSCC1C(=O)Nc1cc(-c2ccc(O)cc2)cc2[nH]ncc12 (stereo not drawn) [Compound 12-66],> 100 nM,> 100 nM,> 100 nM,31.6 to 200 nM,0.1 to 1 nM,A (a value of 3 or above),–,–,–,–,–,–,–,–
C=CC(=O)N1CCC(COc2cc(-c3ccc(O)c(F)c3)nc3[nH]ncc23)CC1 [Compound 14-9],–,–,–,–,–,A (a value of 3 or above),E (a pKi value of 7 or below (Ki of 100 nM or above)),E (a pKi value of 7 or below (Ki of 100 nM or above)),E (a pKi value of 7 or below (Ki of 100 nM or above)),–,B (a pKi value between 9 and 10 (Ki between 1 nM and 0.1 nM)),–,–,B (a pIC50 value between 6.7 (included) and 7.5 (IC50 between 200 nM and 32 nM))
CN(C)C/C=C/C(=O)N1CCC(Oc2cc(-c3ccc(O)c(F)c3)cc3[nH]ncc23)CC1 [Compound 6-20],10 to 100 nM,1 to 10 nM,> 100 nM,31.6 to 200 nM,0.1 to 1 nM,B (a value of 2.3 to 3),–,–,–,–,–,–,–,–
"C=CC(=O)N1CC[C@H](Oc2cc(-c3ccc(O)c(Cl)c3)cc3[nH]nc(C)c23)C1 [Compound 24, (S)-1-(3-((6-(3-chloro-4-hydroxyphenyl)-3-methyl-1H-indazol-4-yl)oxy)pyrrolidin-1-yl)prop-2-en-1-one]",> 100 nM,> 100 nM,> 100 nM,–,0.1 to 1 nM,–,–,–,–,–,–,A (a value of 3 or above),< 31.6 nM,–
Cc1n[nH]c2cc(-c3ccc(O)c(Cl)c3)cc(OCC3CN(C(=O)/C=C/CN(C)C)C3)c12 [Compound 18-1],> 100 nM,10 to 100 nM,> 100 nM,< 31.6 nM,0.1 to 1 nM,B (a value of 2.3 to 3),–,–,–,–,–,–,–,–
